# Source: patent US10696691B2, “BACE1 inhibitors” (Hoffmann-La Roche Inc., priority 2015, dated 2020)
# Tests used:
# Aβ40 = assay: Lowering of Aβ40 in brain of wild-type mice; assay type: in vivo; conditions: female C57Bl/6J mice, 30 mg/kg per os, 4 h, brain Aβ40 as percentage of the vehicle group; for response vs control in vivo at 30 mg/kg: Mus musculus, po, read-out: Aβ40 (wt mice, brain)
# Procedure: Lowering of Aβ40 in Brain of Wild-Type Mice:
# Animals and Housing Conditions.
# Animals were maintained in a 12/12 h light/dark cycle, with lights starting at 6 a.m., and experiments were conducted during the light phase, Animal housing and experimental procedures were in line with ethical and legal guidelines and were authorized by local veterinary authorities.
# Female C57Bl/6J mice were treated with a dose of 30 mg/kg of the compounds, 3-4 animals per treatment group. The test compound was dissolved in 5% EtOH, 10% Solutol, and was applied per os at 10 mL/kg. After 4 h, the animals were sacrificed and brain and plasma were collected. The brain was cut into halves and immediately frozen on dry ice. Brain was used for measurement of Aβ40 and plasma was used for determination of compound exposure. […] Brain tissue was homogenized in 2% DEA buffer in a Roche MagnaLyser (20″, 4000 rpm) and subsequently centrifuged for 1 h at 100000 g. DEA was reduced to 0.2% in 50 mM NaCl and one-half of the DEA lysate was passed over an Oasis Solid phase extraction plate (Waters; cat. no. 186000679), which had been activated with MeOH and equilibrated in dH2O (1 mL each). After washes in 10% and 30% MeOH (1 mL each), the Aβ-peptides were eluted in 0.8 mL of 2% NH4OH in 90% MeOH. The eluate was dried over a N2 flow, and the dried sample was reconstituted in 30 μL of AlphaLISA assay buffer. Aβ40 was determined by an AlphaLISA assay (Perkin-Elmer). In a white 96-well, half area microplate (Perkin-Elmer cat. no. 6005561), 20 μL of the reconstituted sample were mixed with 5 μL of biotinylated BAP-24 (specific for C-terminus of Aβ40) (Brockhaus, M.; Onmberg, J.; Rohrig, S.; Loetscher, H.; Wittenburg, N.; Baumeister, R.; Jacobsen, H.; Haass, C. Caspasemediated cleavage is not required for the activity of presenilins in amyloidogenesis and NOTCH signaling. NeuroReport 1998, 9, 1481-1486.) stock=4.4 mg/mL, f.c.5.5 μg/mL), and 5 μL 252Q6 acceptor beads (252Q6 antibody, Invitrogen AMB0062) had been previously conjugated with AlphaLISA Acceptor beads (Perkin-Elmer cat. no. 6772002); final dilution 1:500). The mix was incubated for 1 h at RT in the dark. Then 20 μL of Streptavin-coated Donor Beads (Perkin-Elmer cat. no. 6760002, final dilution 1:125) were added and this final mix was incubated in the dark for another 30 min at RT before RFU was measured in an AlphaScreen Reader (Perkin-Elmer Envision 2104). The value obtained for A40 in the treated animals was related to the value in the vehicle group and is given in %. Alternatively a commercial ELISA was used for Aβ40 determination (Wako ELISA: (“Human/Rat 3 Amyloid (40) ELISA kit Wako II”; cat nr. 294-64701) following the manufacture's instruction. Also here the Aβ-lowering efficacy was calculated as percentage of the vehicle group.
# BACE1 = molecular target: T1, BACE1 (Homo sapiens, UniProt P56817); assay: Cellular Aβ-lowering assay (Abeta 40 AlphaLISA, HEK293 APP cells); assay type: cell-based; conditions: 18-20 hrs incubation, Aβ 40 in culture supernatants, read-out: BACE1 cell act. Aβ40 IC50
# T1 construct: endogenous in cells; host or cells: HEK293 APP cells
# Procedure: Cellular Aβ-Lowering Assay:
# The Abeta 40 AiphaLISA Assay can be used. The HEK293 APP cells were seeded in 96 well Microtiter plates in cell culture medium (Iscove's, plus 10% (v/v) fetal bovine serum, penicillin/streptomycin) to about 80% confluency and the compounds were added at a 3× concentration in ⅓ volume of culture medium (final DMSO concentration was kept at 1% v/v). After 18-20 hrs incubation at 37° C. and 5% CO2 in a humidified incubator, the culture supernatants were harvested for the determination of Aβ 40 concentrations using Perkin-Elmer Human Amyloid beta 1-40 (high specificity) Kit (Cat # AL275C).
# In a Perkin-Elmer White Optiplate-384 (Cat #6007290), 2 ul culture supernatants were combined with 2 μl of a 10× AlphaLISA Anti-hABAcceptor beads+Biotinylated Antibody Anti-AD 1-40 Mix (50 μg/mL/5 nM). After 1 hour room temperature incubation, 16 μl of a 1.25× preparation of Streptavidin (SA) Donor beads (25 μg/mL) were added and incubated for 30 minutes in the Dark. Light Emission at 615 nm was then recorded using EnVision-Alpha Reader. Levels of Aβ 40 in the culture supernatants were calculated as percentage of maximum signal (cells treated with 1% DMSO without inhibitor). The IC50 values were calculated using the Excel XLfit software.
# T1 sequence (P56817 46-501): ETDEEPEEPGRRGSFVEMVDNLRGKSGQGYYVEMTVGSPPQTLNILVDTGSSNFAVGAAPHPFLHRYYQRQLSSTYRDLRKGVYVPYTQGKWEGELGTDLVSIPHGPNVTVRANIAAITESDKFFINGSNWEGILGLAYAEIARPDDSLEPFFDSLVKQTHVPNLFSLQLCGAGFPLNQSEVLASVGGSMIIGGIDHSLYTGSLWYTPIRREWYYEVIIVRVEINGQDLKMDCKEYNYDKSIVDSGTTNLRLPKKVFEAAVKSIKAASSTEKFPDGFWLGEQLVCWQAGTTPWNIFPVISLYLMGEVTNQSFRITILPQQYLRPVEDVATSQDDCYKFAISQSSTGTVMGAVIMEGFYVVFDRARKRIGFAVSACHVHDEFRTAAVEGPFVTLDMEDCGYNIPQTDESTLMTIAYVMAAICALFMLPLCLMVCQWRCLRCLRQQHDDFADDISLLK
IC50 (BACE1) [pM],SMILES,response vs control in vivo at 30 mg/kg (Aβ40) [%],"Aβ40 (wt mice, brain) (Aβ40) [%]"
600,"COc1cnc(C(=O)Nc2ccc(F)c([C@@]3(C)N=C(N)C(C)(C)[S@@]4(=O)=NCC[C@@H]34)c2)c(C)c1 [Example 26AB, N-(3-((3aS,4R,8R)-6-amino-4,7,7-trimethyl-8-oxido-3,3a,4,7-tetrahydro-2H-isothiazolo[1,5-a][1,4]thiazin-4-yl)-4-fluorophenyl)-5-methoxy-3-methylpicolinamide]",11,–
400,"CCOc1cnc(C(=O)Nc2ccc(F)c([C@@]3(C)N=C(N)C(C)(C)[S@@]4(=O)=NCC[C@@H]34)c2)cn1 [Example 27AB, N-(3-((3aS,4R,8R)-6-amino-4,7,7-trimethyl-8-oxido-3,3a,4,7-tetrahydro-2H-isothiazolo[1,5-a][1,4]thiazin-4-yl)-4-fluorophenyl)-5-ethoxypyrazine-2-carboxamide]",9,–

# Further lines, the compound ahead of its results:
SMILES,IC50 (BACE1) [pM],response vs control in vivo at 30 mg/kg (Aβ40) [%],"Aβ40 (wt mice, brain) (Aβ40) [%]"
"CC1(C)C(N)=N[C@](C)(c2cc(NC(=O)c3ccc(F)cn3)ccc2F)[C@@H]2CCN=[S@@]21=O [Example 17AB, N-(3-((3aS,4R,8R)-6-amino-4,7,7-trimethyl-8-oxido-3,3a,4,7-tetrahydro-2H-isothiazolo[1,5-a][1,4]thiazin-4-yl)-4-fluorophenyl)-5-fluoropicolinamide]",300,40,–
"CC1(C)C(N)=N[C@](C)(c2cc(NC(=O)c3cnc(OCC(F)(F)C(F)F)cn3)ccc2F)[C@@H]2CCN=[S@@]21=O [Example 22AB, N-(3-((3aS,4R,8R)-6-amino-4,7,7-trimethyl-8-oxido-3,3a,4,7-tetrahydro-2H-isothiazolo[1,5-a][1,4]thiazin-4-yl)-4-fluorophenyl)-5-(2,2,3,3-tetrafluoropropoxy)pyrazine-2-carboxamide]",200,–,51
"CCOc1ccc(C(=O)Nc2ccc(F)c([C@@]3(C)N=C(N)C(C)(C)[S@@]4(=O)=NCC[C@@H]34)c2)nc1 [Example 25AB, N-(3-((3aS,4R,8R)-6-amino-4,7,7-trimethyl-8-oxido-3,3a,4,7-tetrahydro-2H-isothiazolo[1,5-a][1,4]thiazin-4-yl)-4-fluorophenyl)-5-ethoxypicolinamide]",500,40,–
